Data reported in patent US20060216779A1, “Method for the detection of post-translational modification activities and device system for carrying out said method” (priority 2003, published 2006).

Assays:
[1] = measurement of the relative dielectric constant ε of the peptide in water in a measuring capacitor; format: physicochemical; details: dissolved in water, 1.14 mM, 4 microlitres, t=23° C.
Experimental: According to further variant for the detection of posttranslational activities, the dielectric constant (permittivity) of a liquid sample with a sensor is measured. As is evident from FIG. 3A, the sample is located in a detection cell (measuring cell 11) serving as a capacitor. The introduction of a polarizing dielectric between the capacitor plates reduces the electric field intensity in vacuum E0 to P/ε0: E=E0−P/ε0 (4) where […] and P is the induced polarization of the dielectric with dielectric constant ε.
The polypeptides (S1) or (S2) dissolved in water have been placed as a dielectric between the electrode plates of the measuring capacitor (measuring cell 11), see FIG. 3A. Polypeptide ELDVPIPGRFDRRVSVAAD (S1) is a specific substrate for protein kinase A which catalyses the phosphorylation of serine. Phosphatase PP2B implements the dephosphorylation of serine of the polypeptide ELDVPIPGRFDRRVpSVAAD (S2). […]
Regarding the detection of peptide modification in tests through the measurement of the relative dielectric constant ε, the following should be added: four microlitres of samples, each containing the polypeptide S1 (unphosphorylated) or S2 (phosphorylated) (table 1), dissolved in water to a concentration of 1.14 mM, are directly introduced between the electrode plates of a measuring capacitor. The dielectric constant ε is measured at a temperature of t=23° C. […]

[2] = measurement of the frequency shift of an oscillator with the peptide sample as core of the induction coil; format: physicochemical; details: 150 μL sample, 1.14M in water, t=22° C., f0=5342.9 kHz; S2 instead of S1
Excerpt: According to a further variant of the method for the detection of posttranslational activities, the polypeptides (S1) or (S2) dissolved in water and used as substrates are located in a measuring cell with an inductivity of L and a capacitance of C which functions as an oscillator (FIG. 5). The frequency ω can be determined by […] which can be measured to a high degree of accuracy (10^−5).
For the detection of peptide modification through the measurement of the frequency shift of an oscillator, an experiment was carried out as follows:
A tube containing 150 μL of samples with unphosphorylated peptide S1 or phosphorylated peptide S2 (concentration […] in water) was placed as the core in an induction coil of an oscillator. Frequency f was measured at temperature t=22° C., f0=5342.9 kHz.

Substance	dielectric constant ε [1]	oscillator frequency change [2]
ELDVPIPGRFDRRVSVAAD [Sensor S1, synthesized polypeptide sensor, specific substrate for protein kinase A]	76	
ELDVPIPGRFDRRVpSVAAD [Sensor S2]	70	distinct reduction in frequency
